Experimental data reported in patent US20250129104A1, “7H-PYRROLO[2,3-D]PYRIMIDINES AND PREPARATION AND USES THEREOF” (BioSplice Therapeutics, Inc., priority 2021, published 2025).

Tests used:
[1] = system: Tau phosphorylation at Thr212 (pThr212); assay: tau phosphorylation assay: phosphoTau (Thr212) AlphaLISA in HEK293T cells transfected with DYRK1A and MAPT; type: cell-based; conditions: HEK-293T; HEK293T cells transfected with human DYRK1A and MAPT; 18-24 h compound treatment; read-out: pTau (Thr212) EC50
Procedure: Representative compounds were screened using the assay procedure for tau phosphorylation activity described below.
HEK293T cells (ATCC, CRL3216) cultured in DMEM (Thermo Fisher Scientific, 10566024) supplemented with 10% FBS (Corning, 35-011-CV) and Penicillin/Streptomycin (Thermo Fisher Scientific, 15140163) were seeded in a 75 cm^2 flask at 8.1×10^6 cells/flask. The HEK293T cells were then transiently transfected with 5 μg DYRK1A (NM_001396) human untagged clone (OriGene, SC314641) and 2.5 μg MAPT (441 a.a. Tau gene) (NM_005910) human untagged clone (OriGene, TP313312) using Lipofectamine 3000 (Thermo Fisher Scientific, L30000015) and incubated for 20-30 hours in a humidified incubator at 37° C. and 5% CO2. Post-incubation, HEK293T cells transfected with the DYRK1A and MAPT expression vectors were harvested and seeded in BioCoat poly-D lysine coated 96-well plates (Corning, 354461) at 3×10^4 cells/well.
The above synthesized compounds were screened using the cell assay procedure to assess decreased Tau phosphorylation at Thr212 (pThr212) described below.
Each compound was dissolved in DMSO (Sigma-Aldrich, D8418-100 mL) as a 10 mM stock. 10 mM stocks were serially diluted 1:3, 10-point dose-response curve and added to the cells with a final concentration ranging from 20 μM to 1.1 nM. Cell were treated with compounds in duplicate and incubated for 18-24 hours in a humidified incubator at 37° C. and 5% CO2.
Following the overnight compound treatment, cells were lysed with 1× Alpha Surefire Ultra Lysis Buffer (Perkin Elmer, ALSU-LB-100ML) complemented with 1× Halt Phosphatase Inhibitor Cocktail (Thermo Fisher Scientific, 78427) and 1× Halt Protease Inhibitor Cocktail (Thermo Fisher Scientific, 78438). Lysates were spun down at 12,000 g for 10 min to remove any cellular debris and 5 μL of lysates were dispensed into a 384-well Opti-Plate (Perkin Elmer, 6007290) for the measurement of Tau phosphorylation in the phosphoTau (Thr212) AlphaLISA assay. Donor antibody, biotinylated HT7Tau (Thermo Fisher Scientific, MN1000B), and acceptor antibody, pThr212Tau (Thermo Fisher Scientific, 44740G) were both added to the cell lysates at a final concentration of 3 nM and incubated for 1 hour at room temperature. Following incubation of the lysates with the donor and acceptor antibodies, anti-rabbit IgG (Fc specific) AlphaLISA acceptor beads (Perkin Elmer, AL104C) were added at a 10 μg/mL final concentration and incubated for 1 hour at room temperature protected from light. Lastly, AlphaScreen streptavidin donor beads (PerkinElmer, 6760002) were added at 40 μg/mL final concentration and incubated for 1 hour at room temperature protected from light. Plates were read at […], and Em=615 nm on the EnVision Multilabel Plate Reader (Perkin Elmer). PhosphoTau (Thr212) AlphaLISA signal was used to plot, draw the curve fitting, and determine each compound's EC50 in Prism (GraphPad).

[2] = biological target: recombinant DYRK1A kinase (Homo sapiens (Human), UniProt Q13627); assay: DYRK1A kinase assay (Ser/Thr 18 peptide Z-lyte FRET assay); type: biochemical; conditions: DYRK1A kinase activity; 15 μM ATP, 1 h room temperature; method text calls the value IC50
How it was run: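 Recombinant human DYRK1A (0.25 μg/mL) with 15 μM ATP and 4 μM Ser/Thr 18 peptide, 1 h at room temperature with compound (11-point, 1:3, 10 μM top, duplicate). Z-lyte development 1 h, then coumarin/fluorescein FRET emission ratio converted to % phosphorylation; IC50 by non-linear regression.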

| SMILES | EC50 [1] | EC50 [2] |
| --- | --- | --- |
| COC[C@H](C)Nc1ncc2c(-c3cc(F)c4nccn4c3)c[nH]c2n1 [Compound 205, (S)-5-(8-Fluoroimidazo[1,2-a]pyridin-6-yl)-N-(1-methoxypropan-2-yl)-7H-pyrrolo[2,3-d]pyrimidin-2-amine] | 124 nM | 5.2 nM |
| Fc1cc(-c2c[nH]c3nc(NCC4(F)CC4)ncc23)cn2ccnc12 [Compound 208, N-((1-Fluorocyclopropyl)methyl)-5-(8-fluoroimidazo[1,2-a]pyridin-6-yl)-7H-pyrrolo[2,3-d]pyrimidin-2-amine] | 30 nM | 7.1 nM |
| Cc1cnc2c(F)cc(-c3c[nH]c4nc(C5CC5)ncc34)cn12 [Compound 276, 2-Cyclopropyl-5-(8-fluoro-3-methylimidazo[1,2-a]pyridin-6-yl)-7H-pyrrolo [2,3-d]pyrimidine] | 657 nM | 28.4 nM |
| COC[C@H](C)Nc1ncc2c(-c3cc(F)c4ncc(C)n4c3)c[nH]c2n1 [Compound 292, (S)-5-(8-Fluoro-3-methylimidazo[1,2-a]pyridin-6-yl)-N-(1-methoxypropan-2-yl)-7H-pyrrolo[2,3-d]pyrimidin-2-amine] | 509 nM | 17 nM |
| Cc1cnc2c(F)cc(-c3c[nH]c4nc(NC5CCC(F)(F)CC5)ncc34)cn12 [Compound 301, N-(4,4-Difluorocyclohexyl)-5-(8-fluoro-3-methylimidazo[1,2-a]pyridin-6-yl)-7H-pyrrolo[2,3-d]pyrimidin-2-amine] | 66 nM | 6.6 nM |
| CC(C)(F)CNc1ncc2c(-c3ccc4ncc(C(F)F)n4c3)c[nH]c2n1 [Compound 329, 5-(3-(difluoromethyl)imidazo[1,2-a]pyridin-6-yl)-N-(2-fluoro-2-methylpropyl)-7H-pyrrolo[2,3-d]pyrimidin-2-amine] | 211 nM | 6.8 nM |
| FC(F)(F)CCc1ncc2c(-c3cnc4nccn4c3)c[nH]c2n1 [Compound 449, 5-(Imidazo[1,2-a]pyrimidin-6-yl)-2-(3,3,3-trifluoropropyl)-7H-pyrrolo[2,3-d]pyrimidine] | 497 nM | 9.4 nM |
| c1cn2cc(-c3c[nH]c4nc(C5CC5)ncc34)cnc2n1 [Compound 450, 2-Cyclopropyl-5-(imidazo[1,2-a]pyrimidin-6-yl)-7H-pyrrolo[2,3-d]pyrimidine] | 980 nM | 16.1 nM |
| c1cn2cc(-c3c[nH]c4nc(CC5CCC5)ncc34)cnc2n1 [Compound 452, 2-(Cyclobutylmethyl)-5-(imidazo[1,2-a]pyrimidin-6-yl)-7H-pyrrolo[2,3-d]pyrimidine] | 1220 nM | 20.2 nM |
| CC(C)(F)CNc1ncc2c(-c3cnc4nccn4c3)c[nH]c2n1 [Compound 460, N-(2-Fluoro-2-methylpropyl)-5-(imidazo[1,2-a]pyrimidin-6-yl)-7H-pyrrolo [2,3-d]pyrimidin-2-amine] | 57 nM | 1.5 nM |
| C[C@@H](Nc1ncc2c(-c3cnc4nccn4c3)c[nH]c2n1)C1CC1 [Compound 469, (R)—N-(1-cyclopropylethyl)-5-(imidazo[1,2-a]pyrimidin-6-yl)-7H-pyrrolo [2,3-d]pyrimidin-2-amine] | 246 nM | 7.6 nM |
| Cc1nc2c(F)cc(-c3c[nH]c4nc(C5CC5)ncc34)cc2n1C(C)C [Compound 499, 2-Cyclopropyl-5-(4-fluoro-1-isopropyl-2-methyl-1H-benzo[d]imidazol-6-yl)-7H-pyrrolo[2,3-d]pyrimidine] | 296 nM | 6 nM |
| Cc1nc2c(F)cc(-c3c[nH]c4nc(C5CCC5)ncc34)cc2n1C(C)C [Compound 500, 2-Cyclobutyl-5-(4-fluoro-1-isopropyl-2-methyl-1H-benzo[d]imidazol-6-yl)-7H-pyrrolo[2,3-d]pyrimidine] | 338 nM | 19.8 nM |
| Cc1nc2c(F)cc(-c3c[nH]c4nc(NCC(C)(C)C)ncc34)cc2n1C(C)C [Compound 507, 5-(4-Fluoro-1-isopropyl-2-methyl-1H-benzo[d]imidazol-6-yl)-N-neopentyl-7H-pyrrolo[2,3-d]pyrimidin-2-amine] | 37 nM | 7.2 nM |
| Cc1nc2c(F)cc(-c3c[nH]c4nc(C5CC5)ncc34)cc2n1C1CCN(C)CC1 [Compound 544, 2-Cyclopropyl-5-(4-fluoro-2-methyl-1-(1-methylpiperidin-4-yl)-1H-benzo[d]imidazol-6-yl)-7H-pyrrolo[2,3-d]pyrimidine] | 408 nM | 12.2 nM |
| Cc1nc2ccc(-c3c[nH]c4nc(NCC(C)(C)F)ncc34)nc2n1C [Compound 629, 5-(2,3-Dimethyl-3H-imidazo[4,5-b]pyridin-5-yl)-N-(2-fluoro-2-methylpropyl)-7H-pyrrolo[2,3-d]pyrimidin-2-amine] | 28 nM | 531 nM |
| CC(C)Nc1ncc2c(-c3ccc4ncnn4c3)c[nH]c2n1 [Compound 726, 5-([1,2,4]Triazolo[1,5-a]pyridin-6-yl)-N-isopropyl-7H-pyrrolo[2,3-d]pyrimidin-2-amine] | 815 nM | 22.4 nM |

Continued, values first:

| EC50 [1] | EC50 [2] | SMILES |
| --- | --- | --- |
| 49 nM | 15.5 nM | CC(C)(F)CNc1ncc2c(-c3cc(F)c4nccn4c3)c[nH]c2n1 [Compound 199, N-(2-Fluoro-2-methylpropyl)-5-(8-fluoroimidazo[1,2-a]pyridin-6-yl)-7H-pyrrolo[2,3-d]pyrimidin-2-amine] |
| 76 nM | 6 nM | C[C@@H](Nc1ncc2c(-c3cc(F)c4nccn4c3)c[nH]c2n1)C(F)(F)F [Compound 202, (R)-5-(8-Fluoroimidazo[1,2-a]pyridin-6-yl)-N-(1,1,1-trifluoropropan-2-yl)-7H-pyrrolo[2,3-d]pyrimidin-2-amine] |
| 241 nM | 12.7 nM | CC[C@H](C)Nc1ncc2c(-c3cc(F)c4ncc(C)n4c3)c[nH]c2n1 [Compound 285, (S)—N-(sec-Butyl)-5-(8-fluoro-3-methylimidazo[1,2-a]pyridin-6-yl)-7H-pyrrolo[2,3-d]pyrimidin-2-amine] |
| 11 nM | 1.2 nM | O=C(NCC(F)F)c1cnc2ccc(-c3c[nH]c4nc(C5CC5)ncc34)cn12 [Compound 407, 6-(2-Cyclopropyl-7H-pyrrolo[2,3-d]pyrimidin-5-yl)-N-(2,2-difluoroethyl) imidazo[1,2-a]pyridine-3-carboxamide] |
| 245 nM | 9.3 nM | CC(C)Cc1ncc2c(-c3cnc4nccn4c3)c[nH]c2n1 [Compound 448, 5-(Imidazo[1,2-a]pyrimidin-6-yl)-2-isobutyl-7H-pyrrolo[2,3-d]pyrimidine] |
| 433 nM | 9.2 nM | COc1nc(CC(C)C)nc2[nH]cc(-c3cc(F)c4nc(C)n(C(C)C)c4c3)c12 [Compound 497, 5-(4-Fluoro-1-isopropyl-2-methyl-1H-benzo[d]imidazol-6-yl)-2-isobutyl-4-methoxy-7H-pyrrolo[2,3-d]pyrimidine] |
| 1470 nM | 25 nM | Cc1nc2ncc(-c3c[nH]c4nc(C5CCC5)ncc34)cc2n1C(C)C [Compound 588, 6-(2-Cyclobutyl-7H-pyrrolo[2,3-d]pyrimidin-5-yl)-1-isopropyl-2-methyl-1H-imidazo[4,5-b]pyridine] |
| 6 nM | 5.6 nM | Cc1nc2ccc(-c3c[nH]c4nc(N[C@H](C)C(F)(F)F)ncc34)nc2n1CC(F)F [Compound 646, (R)-5-(3-(2,2-Difluoroethyl)-2-methyl-3H-imidazo[4,5-b]pyridin-5-yl)-N-(1,1,1-trifluoropropan-2-yl)-7H-pyrrolo[2,3-d]pyrimidin-2-amine] |
| 72 nM | 5.1 nM | Cc1nc2ccc(-c3c[nH]c4nc(CC(C)C)ncc34)nc2n1C(C)C [Compound 674, 5-(2-Isobutyl-7H-pyrrolo[2,3-d]pyrimidin-5-yl)-3-isopropyl-2-methyl-3H-imidazo[4,5-b]pyridine] |
